According to US12569452B2, “Ophthalmic compositions comprising F6H8” (NOVALIQ GMBH, priority 2017, dated 2026):

Assays:
Assay type in all cases: in vivo, human
[1] = system: patients with mild to moderate dry eye disease; experiment: Tear film thickness (TFT) by high resolution optical coherence tomography, Example 2
Method: (§1) The study is conducted to evaluate the influence of 1-perfluorohexyl-octane (F6H8, NovaTears®) on tear film thickness in patients with mild to moderate dry eye disease. Herein the administration of 1-perfluorohexyl-octane is compared to Hydrabak (0.9% sodium chloride, Laboratoires Théa).
(§2) 48 patients (safety population) are randomized (1:1 ratio) to receive either F6H8 or Hydrabak. One drop of F6H8 (droplet volume=10-11 μl) or Hydrabak is instilled in each eye 4 times daily for 30 days. DED relevant clinical measures are recorded at Visit 1 (day 0, baseline), Visit 2 (15±2 days) and Visit 3 (30±3 days). The primary outcome variable includes Tear film thickness (TFT) as measured with high resolution optical coherence tomography (OCT), while secondary outcome variables comprised Lipid Layer Thickness (LLT) of the tear film (with LipiView Interferometer), Non-Invasive Tear Break Up Time (NITFBUT) with Bon Antares Tear Film Topographer, Dynamic Meibomian Gland Imaging (DMI) with LipiView Interferometer, Blink frequency (with LipiView interferometer), Dry Eye Visual Analogue Scale (VAS), Corneal fluorescein staining, Conjunctival lissamine green staining, Schirmer I test, Tear Film Break Up Time (TFBUT), Ocular Surface Disease Index (OSDI), Adverse Events (AEs) and others.

[2] = system: patients with mild to moderate dry eye disease; experiment: Lipid Layer Thickness (LLT) of the tear film with LipiView Interferometer, Example 2; conditions: for Lipid Layer Thickness measured in the morning before first daily dosing (relative change from baseline in %): 4 times daily dosing
Method: as §1, §2

[3] = system: patients with mild to moderate dry eye disease; experiment: Adverse events, Example 2; conditions: 4 times daily for 30 days; all adverse effects mild, low incidence
Method: as §2

[4] = system: Dry Eye Disease (DED) patients with MGD involvement; experiment: Corneal fluorescein staining (NEI scale), Phase 2 study Example 3; conditions: vs saline
Method: (§3) A Phase 2, Multi-Center, Randomized, Double-Masked, Saline-Controlled Study to Evaluate the Effect of 1-Perfluorohexyloctane (NOV03; F6H8) at two different dosing regimens on signs and symptoms of Dry Eye Disease (DED). The study was performed at 11 investigational cites in the United States. The study was reviewed and approved by the respective ethics committees and registered at www.clinicaltrials.gov (NCT03333057).
(§4) The study is performed to evaluate the safety, efficacy and tolerability of F6H8 at two different dosing regimens compared to saline on signs and symptoms of Dry Eye Disease.
(§5) Study subjects receive one of the following treatments over a period of 4 visits on day 1, 15, 30 and 60: • (1) F6H8 (NOV03), 4 times daily (QID); • (2) F6H8 (NOV03), 2 times daily (BID); • (3) Saline solution (0.9% sodium chloride solution), 4 times daily (QID); • (4) Saline Solution (0.9% sodium chloride solution), 2 times daily (BID).
(§6) In the BID treatment, study subjects instil bilaterally one drop in each lower eyelid conjunctival fornix two times daily. The instilled drop volume of F6H8 is about 10-12 μl, translating to a single dose of 13.5-16.2 mg (with F6H8 density=1.35 g/ml). […]

[5] = system: Dry Eye Disease (DED) patients with MGD involvement; experiment: Eye Dryness Score on Visual Analog Scale (VAS), Phase 2 study Example 3; conditions: BID, 2, 4 and 8 weeks
Method: as §3, §4, §5, §6

[6] = system: Dry Eye Disease (DED) patients with MGD involvement; experiment: Ocular Surface Disease Index (OSDI), Phase 2 study Example 3; conditions: BID, 2, 4 and 8 weeks
Method: as §3
The study is performed to evaluate the safety, efficacy and tolerability of F6H8 at two different dosing regimens compared to saline on signs and symptoms of Dry Eye Disease. […]
The subjects were asked to fill out an OSDI© questionnaire (see for example, Schiffman R M, et al., Arch Ophthalmol. 2000; 118:615-621) consisting of 12 questions, and asked to respond on a scale of 0 to 4, with 0 corresponding to ‘none of the time’ and 4 corresponding to “all of the time”. The questions assess dry eye symptoms experienced by the patient within past week in terms of the following ocular symptoms: sensitivity to light, gritty sensation, pain or sore eyes, blurriness, and poor vision; vision-related function, in terms of problems in: reading, driving at night, working on a computer or bank machine, watching television; and environmental factors or triggers i.e. discomfort during: windy conditions, places with low humidity, and areas with air condition. […]

[7] = system: Dry Eye Disease (DED) patients with MGD involvement; experiment: Adverse events, Phase 2 study Example 3; conditions: daily dose 20-24 μl
Method: as §3, §4, §5
In the BID treatment, study subjects instil bilaterally one drop in each lower eyelid conjunctival fornix two times daily. The instilled drop volume of F6H8 is about 10-12 μl, translating to a single dose of 13.5-16.2 mg (with F6H8 density=1.35 g/ml).

[8] = system: patients with mild to moderate dry eye disease; experiment: Corneal fluorescein staining, Example 2; conditions: 4 times daily, 4 weeks
Method: as §2

Question: For `CCCCCCCCC(F)(F)C(F)(F)C(F)(F)C(F)(F)C(F)(F)C(F)(F)F` [F6H8, 1-perfluorohexyloctane], which “Tear Film Thickness after continuous dosing 4-times daily (relative change from baseline in %)” value ([1]; 2 weeks, 10 min) is on record?
Answer: Its value is 8.71%.

Question: What about the “Tear Film Thickness after continuous dosing 4-times daily (relative change from baseline in %)” value ([1]; 2 weeks, 20 min) of the same compound?
Answer: The value was 8.57%.

Question: What about the “Tear Film Thickness after continuous dosing 4-times daily (relative change from baseline in %)” value ([1]; 2 weeks, before instillation) of the same compound?
Answer: Its value is 1.43%.

Question: What about the “Tear Film Thickness after continuous dosing 4-times daily (relative change from baseline in %)” value ([1]; 4 weeks, 10 min) of the same compound?
Answer: The value was 9.12%.

Question: What about the “Tear Film Thickness after continuous dosing 4-times daily (relative change from baseline in %)” value ([1]; 4 weeks, 20 min) of the same compound?
Answer: The value was 10.35%.

Question: And the “Tear Film Thickness after continuous dosing 4-times daily (relative change from baseline in %)” value ([1]; 4 weeks, before instillation)?
Answer: Its value is 3.22%.

Question: What about the “Relative change (%) in Tear film thickness from baseline, F6H8 compared with Hydrabak (primary MMRM analysis)” value ([1]; 48 subjects of the safety population) of the same compound?
Answer: Its value is “significantly higher”.

Question: And the “Tear film thickness, least squares mean difference F6H8 vs Hydrabak (MMRM, post-hoc)” value ([1]; Visit 1, safety population 48 subjects)?
Answer: Its value is 1.29%.

Question: What about the “Tear film thickness, least squares mean difference F6H8 vs Hydrabak (MMRM, post-hoc)” value ([1]; Visit 2, safety population 48 subjects) of the same compound?
Answer: Its value is 4.33%.

Question: What about the “Tear film thickness, least squares mean difference F6H8 vs Hydrabak (MMRM, post-hoc)” value ([1]; Visit 3, reached significance) of the same compound?
Answer: Its value is 6.42%.

Question: And the “Tear Film Thickness at study start (relative change from baseline in %)” value ([1]; single dose on Visit 1, 10 min after instillation)?
Answer: The value was 13.39%.

Question: And the “Tear Film Thickness at study start (relative change from baseline in %)” value ([1]; single dose on Visit 1, 20 min after instillation)?
Answer: The value was 6.63%.

Question: What about the “Tear Film Thickness at study start (relative change from baseline in %)” value ([1]; single dose on Visit 1, 40 min after instillation) of the same compound?
Answer: The value was 4.64%.

Question: What about the “Tear Film Thickness at study start (relative change from baseline in %)” value ([1]; single dose on Visit 1, 60 min after instillation) of the same compound?
Answer: The value was 4.03%.

Question: What about the “Tear Film Thickness at study start (relative change from baseline in %)” value ([1]; single dose on Visit 1, 120 min after instillation) of the same compound?
Answer: The value was 4.76%.

Question: And the “Tear Film Thickness at study start (relative change from baseline in %)” value ([1]; single dose on Visit 1, 240 min after instillation)?
Answer: The value was 3.28%.

Question: And the “Lipid Layer Thickness measured in the morning before first daily dosing (relative change from baseline in %)” value ([2]; 2 weeks)?
Answer: Its value is 6.83%.

Question: And the “Lipid Layer Thickness measured in the morning before first daily dosing (relative change from baseline in %)” value ([2]; 4 weeks)?
Answer: Its value is 4.10%.

Question: And the “LLT relative change from baseline, estimated least square mean difference F6H8 vs Hydrabak (post hoc MMRM)” value ([2]; values recorded before instillation)?
Answer: The value was 16.34%.

Question: What about the “Safety and tolerability in patients with DED” value [3] of the same compound?
Answer: The value was “safe and well tolerated”.

Question: And the “Total corneal fluorescein staining (reduction of ocular surface damage of total corneal region)” value ([4]; BID dosing regimen, 8 weeks)?
Answer: The value was “met its prespecified primary efficacy endpoint”.

Question: And the “Reduction of ocular surface damage of central, nasal and temporal corneal region” value ([4]; BID, fluorescein staining NEI scale)?
Answer: Its value is “clear improvements”.

Question: What about the “VAS symptoms of dryness (severity, frequency, awareness of dryness, blurred vision, sensitivity to light) over placebo” value [5] of the same compound?
Answer: Its value is “highly statistical significant improvement”.

Question: What about the “Symptoms of dryness by OSDI score incl. total OSDI score over placebo” value [6] of the same compound?
Answer: Its value is “highly statistical significant improvement”.

Question: What about the “Adverse effects, 2-times daily schedule (BID)” value [7] of the same compound?
Answer: The value was “trend towards less adverse effects”.

Question: What about the “Corneal Staining reduction compared with Hydrabak group” value [8] of the same compound?
Answer: Its value is “tended to be stronger reduced”.
